The record followed here is ChEMBL document CHEMBL3272039, “Potenial antitumor agents. 28. Deoxyribonucleic acid polyintercalating agents” (J Med Chem, 1978).

The species named for one data set is Bos taurus. Put plainly: Displacement of ethidium bromide from calf thymus DNA by spectrofluorometric analysis.
The next data set deals with Pseudoalteromonas. The data set is described as follows: Induction of bacteriophage PM2 closed circular DNA unwinding assessed as drug per nucleic acid phosphate ratio at equivalence by viscometric analysis.
The next data set has as its system P388. The data set is described as follows: Antitumor activity against mouse P388 cells allografted in ip dosed BDF1 mouse at optimum dose administered qd for 5 days relative to control. It counts as functional.
Data set [1] is described as follows: (§1) Toxicity in ip dosed BDF1 mouse allografted with mouse P388 cells administered qd for 5 days. It counts as organism-based. The following applies: BDF1, mouse, in vivo.
Data set [2] is described as follows: Lipophilic-hydrophilic balance, Rm of the compound by reversed-phase chromatographic analysis. It counts as physicochemical.
A short description of data set [3]: (§2) Toxicity in ip dosed BDF1 mouse allografted with mouse L1210 cells administered qd for 5 days. Conditions: BDF1, mouse, in vivo. It counts as organism-based.
The next data set concerns L1210. The data set is described as follows: Antitumor activity against mouse L1210 cells allografted in ip dosed BDF1 mouse at optimum dose administered qd for 5 days relative to control. The data set is classed as functional.
Data set [4] concerns Mus musculus. Described as §1. The data set is classed as organism-based. The following applies: mouse, in vivo, 120 h.
Data set [5] relates to Mus musculus. The data set is described as §2. Conditions: mouse, in vivo, 120 h. It counts as organism-based.

Where only a bound is given, the exact number is not on record here.

Usually ILS stands for how much longer treated animals lived than controls.

In turn, `COc1cc(NS(=O)(=O)CCCCS(=O)(=O)Nc2ccc(Nc3ccnc4ccccc34)c(OC)c2)ccc1Nc1ccnc2ccccc12.Cl.O` registered a C50 in the data set filed under Bos taurus of 7.5 µM. Besides, in the data set on Pseudoalteromonas, the Ratio came to 0.15. This molecule also gave an increase in life span (ILS) in the data set on P388 of more than 25%. In addition, in [1], the MTD at 120 h is 12 mg/kg/day. Besides, in data set [2], the Rm is recorded as -0.28.

The molecule `Cl.O.O=S(=O)(CCCS(=O)(=O)Nc1ccc(Nc2c3ccccc3nc3ccccc23)cc1)Nc1ccc(Nc2c3ccccc3nc3ccccc23)cc1` registered an MTD at 120 h in data set [3] of 250 mg/kg/day. For the same molecule, in the data set listed under Bos taurus, the C50 turned out to be 0.064 µM. Also, the figures for the increase in life span (ILS) in the data set on L1210 and in the data set on P388 were more than 25% and 29%, respectively. This molecule also displayed an Activity in the data set with Mus musculus [4] of 250 mg/kg/day. Further, the Rm in data set [2] is recorded as -0.16.

`Cl.O.O=S(=O)(CCNc1c2ccccc2nc2ccccc12)Nc1ccc(Nc2c3ccccc3nc3ccccc23)cc1` gave an MTD at 120 h in [3] of 60 mg/kg/day. Besides, in the data set listed under Bos taurus, the C50 turned out to be 0.09 µM. In the data set with Pseudoalteromonas, the Ratio is 0.078. For the same molecule, the increase in life span (ILS) is reported as more than 25% in the data set with L1210 and 31% in the data set on P388. The same molecule returned an Activity in the data set on Mus musculus [4] of 60 mg/kg/day. In data set [2], this molecule registered a Rm of -0.17.

Consider `CS(=O)(=O)Nc1ccc(Nc2c3ccccc3nc3ccccc23)cc1`, for which the Activity with Mus musculus [5] and with Mus musculus [4] was 45 mg/kg/day each time. This molecule returned a C50 in the data set filed under Bos taurus of 5.9 µM. Besides, the ILS in the data set on L1210 amounted to 107%; in the data set on P388 it was 223%. Besides, the Rm in [2] came to 0.

In turn, `Cl.c1ccc(OCCCOc2ccccc2Nc2c3ccccc3nc3ccccc23)c(Nc2c3ccccc3nc3ccccc23)c1` had a C50 in the data set filed under Bos taurus of 0.6 µM. The Ratio in the data set with Pseudoalteromonas amounted to 0.072. Further, the increase in life span (ILS) in the data set on P388 is on record as more than 25%. The MTD at 120 h in data set [1] stood at 50 mg/kg/day. The same molecule came in with a Rm in data set [2] of 0.28.

Consider `CCOc1cc(NS(C)(=O)=O)ccc1Nc1c2ccccc2nc2ccccc12`, for which the Activity with Mus musculus [5] and in the data set on Mus musculus [4] was 60 mg/kg/day in each case. Besides, in the data set filed under Bos taurus, the C50 is 19 µM. In addition, the ILS amounted to 71% in the data set on L1210 and 218% in the data set on P388. The molecule also registered a Rm in [2] of 0.37.

As to `c1ccc(Nc2c3ccccc3nc3ccccc23)cc1`, the MTD at 120 h in data set [3] and in data set [1] was 105 mg/kg/day in each case. This molecule showed a C50 in the data set listed under Bos taurus of 13 µM. Moreover, the ILS in the data set with L1210 and in the data set on P388 was more than 25% throughout. In data set [2], this molecule had a Rm of 0.43.

On to `COc1cc(NS(=O)(=O)CCCCCS(=O)(=O)Nc2ccc(Nc3c4ccccc4nc4ccccc34)c(OC)c2)ccc1Nc1c2ccccc2nc2ccccc12.CS(=O)(=O)O.O`, for which the Activity with Mus musculus [5] and in the data set on Mus musculus [4] was 400 mg/kg/day throughout. This molecule showed a C50 in the data set listed under Bos taurus of 0.14 µM. The increase in lifespan (ILS) with L1210 was found to be 36%; with P388 it was 71%. Besides, the Rm in data set [2] is recorded as 0.35.

Consider `Cl.O.O=S(=O)(CCNc1ncnc2ccccc12)Nc1ccc(Nc2c3ccccc3nc3ccccc23)cc1`, for which the Activity with Mus musculus [5] was found to be 50 mg/kg/day; in the data set on Mus musculus [4], 100 mg/kg/day. The molecule also came in with a C50 in the data set filed under Bos taurus of 0.67 µM. Besides, the ILS in the data set with L1210 was 57%; in the data set on P388 it was 100%. For the same molecule, the Rm in data set [2] is -0.53.

`COc1cc(NS(=O)(=O)CCCCS(=O)(=O)Nc2ccc(Nc3c4ccccc4nc4ccccc34)c(OC)c2)ccc1Nc1c2ccccc2nc2ccccc12`: the Activity with Mus musculus [5] and in the data set with Mus musculus [4] was more than 500 mg/kg/day in each case. This molecule also had a C50 in the data set listed under Bos taurus of 0.057 µM. For the same molecule, the Ratio with Pseudoalteromonas was 0.041. Besides, the ILS in the data set on L1210 was 26%; with P388, 39%. Besides, in data set [2], the Rm came out at 0.27.

Turning to `Br.O=S(=O)(CCCCNc1ccnc2ccccc12)Nc1ccc(Nc2c3ccccc3nc3ccccc23)cc1`, the Activity in the data set with Mus musculus [5] and in the data set with Mus musculus [4] was 75 mg/kg/day throughout. In addition, the C50 in the data set listed under Bos taurus is 0.18 µM. Besides, the Ratio in the data set on Pseudoalteromonas amounted to 0.091. The increase in lifespan (ILS) came out at 29% in the data set with L1210 and 76% in the data set on P388. The molecule also displayed a Rm in data set [2] of -0.31.

Regarding `Cl.O.O=S(=O)(CCCCCNc1c2ccccc2nc2ccccc12)Nc1ccc(Nc2c3ccccc3nc3ccccc23)cc1`, the Activity in the data set with Mus musculus [5] and with Mus musculus [4] was 250 mg/kg/day in each case. In the data set listed under Bos taurus, this molecule came in with a C50 of 0.17 µM. For the same molecule, the ILS with L1210 is 35%; in the data set with P388, 63%. Moreover, in data set [2], the Rm is recorded as -0.04.

`Cl.O.O=S(=O)(CCCCCNc1ccnc2ccccc12)Nc1ccc(Nc2c3ccccc3nc3ccccc23)cc1` yielded an MTD at 120 h in data set [3] of 200 mg/kg/day. This molecule displayed a C50 in the data set filed under Bos taurus of 0.4 µM. In addition, the ILS in the data set with L1210 is given as more than 25%; in the data set on P388, 37%. Besides, the Activity with Mus musculus [4] was 200 mg/kg/day. This molecule also gave a Rm in [2] of -0.24.

The molecule `Br.O.O=S(=O)(CCNc1ccnc2ccccc12)Nc1ccc(Nc2c3ccccc3nc3ccccc23)cc1` registered an MTD at 120 h in [3] of 90 mg/kg/day. In the data set listed under Bos taurus, this molecule returned a C50 of 0.12 µM. The Ratio in the data set on Pseudoalteromonas is 0.12. The ILS in the data set with L1210 was more than 25%; in the data set on P388, 36%. Further, the Activity in the data set on Mus musculus [4] is given as 90 mg/kg/day. This molecule gave a Rm in data set [2] of -0.54.

Consider `CS(=O)(=O)Nc1ccc(Nc2ccnc3ccccc23)cc1`, for which the MTD at 120 h in data set [3] and in data set [1] was 200 mg/kg/day each time. Also, the C50 in the data set listed under Bos taurus stood at 490 µM. Further, the ILS with L1210 and in the data set with P388 was more than 25% throughout. This molecule yielded a Rm in data set [2] of -0.39.

For the molecule `COc1cc(NS(C)(=O)=O)ccc1Nc1c2ccccc2nc2ccccc12` [AMSACRINE], the Activity in the data set on Mus musculus [5] and in the data set on Mus musculus [4] was 6.7 mg/kg/day each time. In the data set listed under Bos taurus, the C50 turned out to be 10.8 µM. For the same molecule, in the data set on Pseudoalteromonas, the Ratio is 0.082. The same molecule came in with an ILS in the data set with L1210 of 114%. The molecule also registered a Rm in data set [2] of 0.18.

In the case of `Br.O.O=S(=O)(CCCCCCNc1ccnc2ccccc12)Nc1ccc(Nc2c3ccccc3nc3ccccc23)cc1`, the MTD at 120 h in data set [3] and in data set [1] was 75 mg/kg/day throughout. In the data set listed under Bos taurus, the C50 worked out at 0.65 µM. Besides, the increase in lifespan (ILS) in the data set with L1210 and in the data set on P388 was more than 25% each time. In [2], this molecule showed a Rm of -0.09.

Consider `Cl.O.O=S(=O)(CCCNc1c2ccccc2nc2ccccc12)Nc1ccc(Nc2c3ccccc3nc3ccccc23)cc1`, for which the MTD at 120 h in [3] stood at 300 mg/kg/day. In the data set listed under Bos taurus, this molecule yielded a C50 of 0.1 µM. Besides, the ILS in the data set with L1210 is recorded as more than 25%; in the data set on P388 it was 38%. The same molecule came in with an Activity in the data set with Mus musculus [4] of 300 mg/kg/day. This molecule also registered a Rm in data set [2] of -0.25.

`Cl.O.O=S(=O)(CCCCNc1c2ccccc2nc2ccccc12)Nc1ccc(Nc2c3ccccc3nc3ccccc23)cc1`: in the data set listed under Bos taurus, the C50 came to 0.09 µM. In addition, in the data set on Pseudoalteromonas, the Ratio turned out to be 0.066. This molecule gave an ILS in the data set on P388 of more than 25%. This molecule returned an MTD at 120 h in [1] of 37 mg/kg/day. In [2], the Rm is on record as -0.1.
